According to the supplement of paper PMC10307832:

Columns and labels:
Test in all cases: relative viability (nuclei count vs DMSO), 5 days (fraction); higher = more cells survive
Crenolanib = compound: CC1(COc2ccc3c(c2)ncn3-c2ccc3cccc(N4CCC(N)CC4)c3n2)COC1 [Crenolanib]
Summary of the method: (§1)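 Lung cancer cell lines in 1536-well plates were exposed by pinning to five library-drug doses (not always all listed) √10 apart, following an overnight hold at 37 °C. MetaXpress counted Hoechst-stained nuclei from 4× images taken after 5 days without medium change. Viability is the median ratio of treated-well to vehicle-well nuclei across plates. Plates required control CV below 25% and at least one doubling.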

Tivantinib = compound: O=C1NC(=O)[C@@H](c2cn3c4c(cccc24)CCC3)[C@@H]1c1c[nH]c2ccccc12 [Tivantinib]
Summary of the method: as §1

Crenolanib + Luminespib = compound: CC1(COc2ccc3c(c2)ncn3-c2ccc3cccc(N4CCC(N)CC4)c3n2)COC1 [Crenolanib] + CCNC(=O)c1noc(-c2cc(C(C)C)c(O)cc2O)c1-c1ccc(CN2CCOCC2)cc1 [Luminespib] (partner 0.01 µM)
Summary of the method: (§2)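 Relative viability equals treated-well nuclei counts divided by vehicle-well nuclei counts. Counts came from 4× images of lung cancer cell lines grown in 1536-well plates for 5 days after pin-tool dosing on the day after seeding. Dosing used one drug alone or a fixed anchor-drug dose plus five library-drug doses (not always all listed) in √10 steps, and values are medians of duplicate plates.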

Crenolanib + Foretinib = compound: CC1(COc2ccc3c(c2)ncn3-c2ccc3cccc(N4CCC(N)CC4)c3n2)COC1 [Crenolanib] + COc1cc2c(Oc3ccc(NC(=O)C4(C(=O)Nc5ccc(F)cc5)CC4)cc3F)ccnc2cc1OCCCN1CCOCC1 [Foretinib] (partner 0.25 µM)
Summary of the method: as §2

Crenolanib + OSI-027 = compound: CC1(COc2ccc3c(c2)ncn3-c2ccc3cccc(N4CCC(N)CC4)c3n2)COC1 [Crenolanib] + COc1cccc2cc(-c3nc([C@H]4CC[C@H](C(=O)O)CC4)n4ncnc(N)c34)[nH]c12 [OSI-027] (partner 0.5 µM)
Summary of the method: as §2

Crenolanib + Tozasertib = compound: CC1(COc2ccc3c(c2)ncn3-c2ccc3cccc(N4CCC(N)CC4)c3n2)COC1 [Crenolanib] + Cc1cc(Nc2cc(N3CCN(C)CC3)nc(Sc3ccc(NC(=O)C4CC4)cc3)n2)n[nH]1 [Tozasertib] (partner 0.1 µM)
Summary of the method: as §2

Crenolanib + Dasatinib = compound: CC1(COc2ccc3c(c2)ncn3-c2ccc3cccc(N4CCC(N)CC4)c3n2)COC1 [Crenolanib] + Cc1nc(Nc2ncc(C(=O)Nc3c(C)cccc3Cl)s2)cc(N2CCN(CCO)CC2)n1 [Dasatinib] (partner 0.075 µM)
Summary of the method: as §2

Crenolanib + Phenformin = compound: CC1(COc2ccc3c(c2)ncn3-c2ccc3cccc(N4CCC(N)CC4)c3n2)COC1 [Crenolanib] + N=C(N)NC(=N)NCCc1ccccc1 [Phenformin] (partner 250 µM)
Summary of the method: as §2

Tivantinib + Luminespib = compound: O=C1NC(=O)[C@@H](c2cn3c4c(cccc24)CCC3)[C@@H]1c1c[nH]c2ccccc12 [Tivantinib] + CCNC(=O)c1noc(-c2cc(C(C)C)c(O)cc2O)c1-c1ccc(CN2CCOCC2)cc1 [Luminespib] (partner 0.01 µM)
Summary of the method: as §2

Tivantinib + Foretinib = compound: O=C1NC(=O)[C@@H](c2cn3c4c(cccc24)CCC3)[C@@H]1c1c[nH]c2ccccc12 [Tivantinib] + COc1cc2c(Oc3ccc(NC(=O)C4(C(=O)Nc5ccc(F)cc5)CC4)cc3F)ccnc2cc1OCCCN1CCOCC1 [Foretinib] (partner 0.25 µM)
Summary of the method: as §2

Tivantinib + OSI-027 = compound: O=C1NC(=O)[C@@H](c2cn3c4c(cccc24)CCC3)[C@@H]1c1c[nH]c2ccccc12 [Tivantinib] + COc1cccc2cc(-c3nc([C@H]4CC[C@H](C(=O)O)CC4)n4ncnc(N)c34)[nH]c12 [OSI-027] (partner 0.5 µM)
Summary of the method: as §2

Tivantinib + Tozasertib = compound: O=C1NC(=O)[C@@H](c2cn3c4c(cccc24)CCC3)[C@@H]1c1c[nH]c2ccccc12 [Tivantinib] + Cc1cc(Nc2cc(N3CCN(C)CC3)nc(Sc3ccc(NC(=O)C4CC4)cc3)n2)n[nH]1 [Tozasertib] (partner 0.1 µM)
Summary of the method: as §2

Tivantinib + Dasatinib = compound: O=C1NC(=O)[C@@H](c2cn3c4c(cccc24)CCC3)[C@@H]1c1c[nH]c2ccccc12 [Tivantinib] + Cc1nc(Nc2ncc(C(=O)Nc3c(C)cccc3Cl)s2)cc(N2CCN(CCO)CC2)n1 [Dasatinib] (partner 0.075 µM)
Summary of the method: as §2

Tivantinib + Phenformin = compound: O=C1NC(=O)[C@@H](c2cn3c4c(cccc24)CCC3)[C@@H]1c1c[nH]c2ccccc12 [Tivantinib] + N=C(N)NC(=N)NCCc1ccccc1 [Phenformin] (partner 250 µM)
Summary of the method: as §2

NCI-H1623
relative viability (Crenolanib; 0.01 µM): 1.08 | relative viability (Crenolanib; 0.03162 µM): 0.968 | relative viability (Crenolanib; 0.1 µM): 0.876 | relative viability (Crenolanib; 0.3162 µM): 1.01 | relative viability (Crenolanib; 1 µM): 0.94 | relative viability (Tivantinib; 0.01 µM): 0.978 | relative viability (Tivantinib; 0.03162 µM): 0.961 | relative viability (Tivantinib; 0.1 µM): 0.911 | relative viability (Crenolanib + Luminespib; first compound 0.01 µM): 0.582 | relative viability (Crenolanib + Luminespib; first compound 0.03162 µM): 0.41 | relative viability (Crenolanib + Luminespib; first compound 0.1 µM): 0.457 | relative viability (Crenolanib + Luminespib; first compound 0.3162 µM): 0.633 | relative viability (Crenolanib + Luminespib; first compound 1 µM): 0.357 | relative viability (Crenolanib + Foretinib; first compound 0.01 µM): 0.99 | relative viability (Crenolanib + Foretinib; first compound 0.03162 µM): 0.888 | relative viability (Crenolanib + Foretinib; first compound 0.1 µM): 0.86 | relative viability (Crenolanib + Foretinib; first compound 0.3162 µM): 0.859 | relative viability (Crenolanib + Foretinib; first compound 1 µM): 0.838 | relative viability (Crenolanib + OSI-027; first compound 0.01 µM): 0.434 | relative viability (Crenolanib + OSI-027; first compound 0.03162 µM): 0.405 | relative viability (Crenolanib + OSI-027; first compound 0.1 µM): 0.418 | relative viability (Crenolanib + OSI-027; first compound 0.3162 µM): 0.437 | relative viability (Crenolanib + OSI-027; first compound 1 µM): 0.387 | relative viability (Crenolanib + Tozasertib; first compound 0.01 µM): 0.492 | relative viability (Crenolanib + Tozasertib; first compound 0.03162 µM): 0.439 | relative viability (Crenolanib + Tozasertib; first compound 0.1 µM): 0.437 | relative viability (Crenolanib + Tozasertib; first compound 0.3162 µM): 0.41 | relative viability (Crenolanib + Tozasertib; first compound 1 µM): 0.421 | relative viability (Crenolanib + Dasatinib; first compound 0.01 µM): 0.55 | relative viability (Crenolanib + Dasatinib; first compound 0.03162 µM): 0.515 | relative viability (Crenolanib + Dasatinib; first compound 0.1 µM): 0.548 | relative viability (Crenolanib + Dasatinib; first compound 0.3162 µM): 0.558 | relative viability (Crenolanib + Dasatinib; first compound 1 µM): 0.504 | relative viability (Crenolanib + Phenformin; first compound 0.01 µM): 0.592 | relative viability (Crenolanib + Phenformin; first compound 0.03162 µM): 0.595 | relative viability (Crenolanib + Phenformin; first compound 0.1 µM): 0.543 | relative viability (Crenolanib + Phenformin; first compound 0.3162 µM): 0.585 | relative viability (Crenolanib + Phenformin; first compound 1 µM): 0.553 | relative viability (Tivantinib + Luminespib; first compound 0.01 µM): 0.504 | relative viability (Tivantinib + Luminespib; first compound 0.03162 µM): 0.553 | relative viability (Tivantinib + Luminespib; first compound 0.1 µM): 0.545 | relative viability (Tivantinib + Foretinib; first compound 0.01 µM): 0.87 | relative viability (Tivantinib + Foretinib; first compound 0.03162 µM): 0.745 | relative viability (Tivantinib + Foretinib; first compound 0.1 µM): 0.818 | relative viability (Tivantinib + OSI-027; first compound 0.01 µM): 0.434 | relative viability (Tivantinib + OSI-027; first compound 0.03162 µM): 0.442 | relative viability (Tivantinib + OSI-027; first compound 0.1 µM): 0.487 | relative viability (Tivantinib + Tozasertib; first compound 0.01 µM): 0.388 | relative viability (Tivantinib + Tozasertib; first compound 0.03162 µM): 0.424 | relative viability (Tivantinib + Tozasertib; first compound 0.1 µM): 0.441 | relative viability (Tivantinib + Dasatinib; first compound 0.01 µM): 0.464 | relative viability (Tivantinib + Dasatinib; first compound 0.03162 µM): 0.424 | relative viability (Tivantinib + Dasatinib; first compound 0.1 µM): 0.494 | relative viability (Tivantinib + Phenformin; first compound 0.01 µM): 0.574 | relative viability (Tivantinib + Phenformin; first compound 0.03162 µM): 0.547 | relative viability (Tivantinib + Phenformin; first compound 0.1 µM): 0.49
